Assay results taken from patent US9113629B2, “4-amino-6-(4-substituted-phenyl)-picolinates and 6-amino-2-(4-substituted-phenyl)-pyrimidine-4-carboxylates and their use as herbicides” (DOW AGROSCIENCES LLC, priority 2013, dated 2015).
Like-named read-outs stand apart in the source and are kept apart here.

How the values were obtained:
[1] = tested on: Key Grass and Sedge Weeds as well as Grass Crops; experiment: Post-emergent Test II herbicidal activity (Table 6); type: in vivo; conditions: post-emergence, 336 h; for pest or weed control at 70 g/ha: application rate 70 g ai/ha; for pest or weed control at 140 g/ha: application rate 140 g ai/ha
Method in brief: (§1)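 Visual injury ratings (0 = no injury, 100 = complete kill) were taken 14 d after treatment, relative to untreated plants. Seedlings at the first–second true leaf stage received overhead spray at 187 L/ha; the highest rate was serially diluted to ½×, ¼×, ⅛× and 1/16×.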

[2] = tested on: Key Broadleaf Weed and Crop Species; experiment: Post-emergent Test II herbicidal activity (Table 5); type: in vivo; conditions: post-emergence, 336 h, post-emergent, 14 days after application; for pest or weed control at 70 g/ha: 70 g ai/ha; for pest or weed control at 140 g/ha: 140 g ai/ha
Method in brief: as §1

[3] = CYPES: yellow nutsedge (Cyperus esculentus), read-out: Visual Growth Reduction (%) 14 Days After Application, CYPES
[4] = DIGSA: crabgrass (Digitaria sanguinalis), read-out: Visual Growth Reduction (%) 14 Days After Application, DIGSA
[5] = ECHCG: barnyardgrass (Echinochloa crus-galli), read-out: Visual Growth Reduction (%) 14 Days After Application, ECHCG
[6] = ORYSA: rice (Oryza sativa), read-out: Visual Growth Reduction (%) 14 Days After Application, ORYSA
[7] = SETFA: giant foxtail (Setaria faberi), read-out: Visual Growth Reduction (%) 14 Days After Application, SETFA
[8] = SORVU: grain sorghum (Sorghum vulgare), read-out: Visual Growth Reduction (%) 14 Days After Application, SORVU
[9] = TRZSS (wheat, Triticum aestivum), read-out: Visual Growth Reduction (%) 14 Days After Application, TRZSS
[10] = ZEAMX: maize, corn (Zea mays), read-out: Visual Growth Reduction (%) 14 Days After Application, ZEAMX
[11] = ABUTH: velvetleaf (Abutilon theophrasti), read-out: Visual Growth Reduction (%) 14 Days After Application ABUTH
[12] = AMARE: redroot pigweed (Amaranthus retroflexus), read-out: Visual Growth Reduction (%) 14 Days After Application AMARE
[13] = BRSNN: oilseed-rape, canola (Brassica napus), read-out: Visual Growth Reduction (%) 14 Days After Application BRSNN
[14] = CHEAL: lambsquarters (Chenopodium album), read-out: Visual Growth Reduction (%) 14 Days After Application CHEAL
[15] = EPHHL: wild poinsettia (Euphorbia heterophylla), read-out: Visual Growth Reduction (%) 14 Days After Application EPHHL
[16] = HELAN: sunflower (Helianthus annuus), read-out: Visual Growth Reduction (%) 14 Days After Application HELAN
[17] = VIOTR: wild pansy (Viola tricolor), read-out: Visual Growth Reduction (%) 14 Days After Application VIOTR

| SMILES | pest or weed control at 70 g/ha [1, 3] [%] | pest or weed control at 140 g/ha [1, 3] [%] | pest or weed control at 70 g/ha [1, 4] [%] | pest or weed control at 140 g/ha [1, 4] [%] | pest or weed control at 70 g/ha [1, 5] [%] | pest or weed control at 140 g/ha [1, 5] [%] | pest or weed control at 70 g/ha [1, 6] [%] | pest or weed control at 140 g/ha [1, 6] [%] | pest or weed control at 70 g/ha [1, 7] [%] | pest or weed control at 140 g/ha [1, 7] [%] | pest or weed control at 70 g/ha [1, 8] [%] | pest or weed control at 140 g/ha [1, 8] [%] | pest or weed control at 70 g/ha [1, 9] [%] | pest or weed control at 140 g/ha [1, 9] [%] | pest or weed control at 70 g/ha [1, 10] [%] | pest or weed control at 140 g/ha [1, 10] [%] | pest or weed control at 70 g/ha [2, 11] [%] | pest or weed control at 140 g/ha [2, 11] [%] | pest or weed control at 70 g/ha [2, 12] [%] | pest or weed control at 140 g/ha [2, 12] [%] | also measured |
| --- | --- | --- | --- | --- | --- | --- | --- | --- | --- | --- | --- | --- | --- | --- | --- | --- | --- | --- | --- | --- | --- |
| Nc1cc(-c2c(F)cc(Br)c(F)c2F)nc(C(=O)O)c1Cl [Compound 162, 4-amino-6-(4-bromo-2,3,6-trifluorophenyl)-3-chloropicolinic acid] | 95 to 100 | 45 to 59 | 75 to 84 | 75 to 84 | 85 to 94 | 75 to 84 | 45 to 59 | 45 to 59 | 85 to 94 | 75 to 84 | 85 to 94 | 95 to 100 | 45 to 59 | 45 to 59 | 60 to 74 | 75 to 84 | 85 to 94 | 85 to 94 | 95 to 100 | 95 to 100 | pest or weed control at 70 g/ha [2, 13]: 95 to 100%; pest or weed control at 140 g/ha [2, 13]: 95 to 100%; pest or weed control at 70 g/ha [2, 14]: 95 to 100%; pest or weed control at 140 g/ha [2, 14]: 95 to 100%; pest or weed control at 70 g/ha [2, 15]: 95 to 100%; pest or weed control at 140 g/ha [2, 15]: 95 to 100%; pest or weed control at 70 g/ha [2, 16]: 85 to 94%; pest or weed control at 140 g/ha [2, 16]: 85 to 94%; pest or weed control at 70 g/ha [2, 17]: 95 to 100%; pest or weed control at 140 g/ha [2, 17]: 95 to 100% |
| COC(=O)c1nc(-c2cc(F)c(C(F)(F)F)cc2F)cc(N)c1Cl [Compound 70, methyl 4-amino-3-chloro-6-(2,5-difluoro-4-(trifluoromethyl)phenyl)picolinate] | 95 to 100 | 95 to 100 | 85 to 94 | 95 to 100 | 85 to 94 | 95 to 100 | 0 to 29 | 0 to 29 | 30 to 44 | 60 to 74 | 85 to 94 | 95 to 100 | 75 to 84 | 85 to 94 | 95 to 100 | 95 to 100 | 95 to 100 | 95 to 100 | 95 to 100 | 95 to 100 | pest or weed control at 70 g/ha [2, 13]: 75 to 84%; pest or weed control at 140 g/ha [2, 13]: 85 to 94%; pest or weed control at 70 g/ha [2, 14]: 95 to 100%; pest or weed control at 140 g/ha [2, 14]: 95 to 100%; pest or weed control at 70 g/ha [2, 15]: 95 to 100%; pest or weed control at 140 g/ha [2, 15]: 95 to 100%; pest or weed control at 70 g/ha [2, 16]: 85 to 94%; pest or weed control at 140 g/ha [2, 16]: 95 to 100%; pest or weed control at 70 g/ha [2, 17]: 60 to 74%; pest or weed control at 140 g/ha [2, 17]: 75 to 84% |
